Values joined by “and” are separate entries in the source; they are usually repeats but may differ in a detail not shown here. Identical values can stand only once.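 Exposure lasted 48 hours, with cells grown in 96-well plates and compounds tested at five concentrations. GI50 marks 50% less growth. TGI marks complete inhibition of growth.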
What was measured:
Experiment in all cases: NCI anticancer screen, dose series, 48 h
SN12C renal = system: SN12C renal
SW-620 colon = system: SW-620 colon
HCC-2998 colon = system: HCC-2998 colon
BT-549 breast = system: BT-549 breast
SF-268 CNS = system: SF-268 CNS
HCT-116 colon = system: HCT-116 colon
NCI-H522 lung = system: NCI-H522 lung
SNB-19 CNS = system: SNB-19 CNS
LXFL 529 NSCLC = system: LXFL 529 NSCLC
DLD-1 colon = system: DLD-1 colon

Row | SMILES | GI50 (SN12C renal) | TGI (SN12C renal) | GI50 (SW-620 colon) | TGI (SW-620 colon) | GI50 (HCC-2998 colon) | TGI (HCC-2998 colon) | GI50 (BT-549 breast) | TGI (BT-549 breast) [µM] | GI50 (SF-268 CNS) | TGI (SF-268 CNS) | GI50 (HCT-116 colon) | TGI (HCT-116 colon) | GI50 (NCI-H522 lung) | TGI (NCI-H522 lung) | GI50 (SNB-19 CNS) | TGI (SNB-19 CNS) | GI50 (LXFL 529 NSCLC) [µM] | TGI (LXFL 529 NSCLC) | GI50 (DLD-1 colon) [µM] | TGI (DLD-1 colon)
1 | COc1cc(/C=C\c2cccnc2Nc2ccccc2)cc(OC)c1OC | 5.1 µM | > 100 µM | 4.81 µM | > 100 µM | 7.74 µM | > 100 µM | 14.3 µM | 65.3 | 8.19 µM | > 100 µM | 3.77 µM | 15.6 µM | 7.44 µM | 40.7 µM | 6.8 µM | > 100 µM | – | – | – | –
2 | OCCCCC#Cc1ccccc1C#Cc1cnccn1 | 47.3 µM | > 100 µM | 62.6 µM | > 100 µM | 33 µM | > 100 µM | 17.4 µM | 55.2 | 32.4 µM | > 100 µM | 42.6 µM | > 100 µM | 24.5 µM | 63.7 µM | 73.4 µM | > 100 µM | – | – | – | –
3 | COc1cc(OC)c(/C=C/S(=O)(=O)Cc2ccc(OC)c(NCC(=O)O)c2)c(OC)c1 | 0.207 µM and 0.251 µM | > 100 µM | 0.13 µM and 0.108 µM | > 100 µM | 0.247 µM and 0.237 µM | > 100 µM | 0.193 µM and 0.4 µM | > 24.5 | 0.292 µM and 0.153 µM | > 100 µM | 0.119 µM and 0.0934 µM | > 10 µM | 0.0374 µM and 0.0205 µM | 0.213 µM and 0.0608 µM | 0.139 µM and 0.244 µM | > 100 µM | – | – | – | –
4 | COc1cc(C(=O)/C=C/c2c(C(F)(F)F)nc3sccn23)cc(OC)c1OC | 1.56 µM | 3.69 µM | 1.67 µM | 3.56 µM | 1.71 µM | 3.13 µM | 2.26 µM | 6.87 | 1.74 µM | 3.57 µM | 1.01 µM | 2.19 µM | 2.03 µM | 4.91 µM | 2.67 µM | 10.2 µM | – | – | – | –
5 | CC(=O)Nc1ccc(-n2cnc3cc(-c4ccc(OCCN5CCCCC5)cc4)ccc32)cc1 | 4.48 µM | 9.72 µM | 0.973 µM | 2.79 µM | 5.98 µM | 14.6 µM | 4.88 µM | 9.77 | 5.28 µM | 11.5 µM | 0.667 µM | 1.3 µM | 6.79 µM | 13.7 µM | 8.53 µM | 33.1 µM | – | – | – | –
6 | CCCCCCN(CCCCCC)CC(O)c1cccc2ccc(Cl)cc12 (centres undefined) | 10.7 µM | 23.6 µM | 3.82 µM | 15 µM | 2.96 µM | 8.04 µM | 14.1 µM | 28 | 12.4 µM | 27.1 µM | 3.09 µM | 14.2 µM | 7.94 µM | 23 µM | 12.9 µM | 26.6 µM | – | – | – | –
7 | C=CC[PH+](c1ccccc1)c1ccccc1.C=CC[PH+](c1ccccc1)c1ccccc1.[Cl][Pt][Cl] | 3.35 µM | 13.9 µM | 3.46 µM | 13.6 µM | 15 µM | 29.9 µM | 17.1 µM | 35.4 | 14.2 µM | 32 µM | 3.2 µM | 10.6 µM | 2.68 µM | 8.19 µM | 14.2 µM | 32.4 µM | – | – | – | –
8 | CCCCCCCCCCCCCCCC(=O)N[C@H]1CCc2cc(OC)c(OC)c(OC)c2-c2ccc(SC)c(=O)cc21 | 2.84 µM | 9.08 µM and 10.3 µM | 2.1 µM | 15.6 µM and 10.8 µM | 2.42 µM | 1.87 µM and 6.82 µM | – | – | 1.63 µM | 7.59 µM and 10.9 µM | 1.04 µM | 3.67 µM and 3.49 µM | – | – | 2.46 µM | 9.27 µM and 8.35 µM | 1.55 | 9.54 µM and 4.92 µM | 0.709 | 10.6 µM and 12.4 µM
9 | COc1ccc(S(=O)(=O)NCCNc2nccc(-c3c(-c4ccccc4)nc4sccn34)n2)cc1 | 1.93 µM | > 100 µM | 5.03 µM | > 100 µM | 16.1 µM | > 100 µM | 3.56 µM | > 100 | 3.74 µM | > 100 µM | 1.58 µM | > 100 µM | 4.64 µM | > 100 µM | 8.78 µM | > 100 µM | – | – | – | –
10 | C=C(CC1(CC(=C)c2ccc(C(=O)O)cc2)C(=O)N(C)C(=O)N(C)C1=O)c1ccc(C(=O)O)cc1 | 59.2 µM | > 100 µM | > 100 µM | > 100 µM | 61.2 µM | > 100 µM | > 100 µM | > 100 | 70.4 µM | > 100 µM | 49.6 µM | > 100 µM | 31.3 µM | > 100 µM | > 100 µM | > 100 µM | – | – | – | –
11 | Clc1ccccc1C1=NN(c2ccccc2)C2c3cc(Br)ccc3OCC12 (centres undefined) | – | – | – | > 100 µM | – | > 100 µM | – | – | – | > 100 µM | – | > 100 µM | – | > 100 µM | – | > 100 µM | – | > 100 µM | – | > 100 µM
12 | CC(=O)N[C@@H]1CCC[C@H](C(=O)Nc2cc(-c3cnn4c3CC(C)(C)C4)c(Cl)cn2)C1 | 0.0103 µM | > 100 µM | < 0.01 µM | > 100 µM | < 0.0149 µM | 0.237 µM | < 0.01 µM | 0.0499 | < 0.01 µM | 0.431 µM | < 0.01 µM | > 100 µM | 0.013 µM | 0.0588 µM | < 0.01 µM | > 100 µM | – | – | – | –
13 | N#CC(=C=[N-])[n+]1ccc(Cl)cc1 | – | 28.3 µM | – | 23.4 µM | – | – | – | – | – | 28.2 µM | – | 31.2 µM | – | 9.55 µM | – | 94.5 µM | – | 27.6 µM | – | 24.4 µM
14 | Cc1ccc(OCCCCCCNCCO)c(C)c1 | 12.7 µM | 26.9 µM | 16.3 µM | 33 µM | 14.7 µM | 30.2 µM | 13.5 µM | 28 | 16 µM | 31.1 µM | 14.2 µM | 31.6 µM | 14.7 µM | 30.1 µM | 14.3 µM | 31 µM | – | – | – | –
15 | COc1ccc(N=C2NN=C(c3c[nH]c4ccccc34)CS2)cc1OC | 18.4 µM | > 100 µM | 5.68 µM | > 60.4 µM | 9.57 µM | > 48.3 µM | 4.2 µM | > 42.5 | 8.65 µM | > 100 µM | 8.25 µM | > 100 µM | 7.17 µM | > 100 µM | 10.9 µM | > 100 µM | – | – | – | –

From PubChem BioAssay (NCI)
